# Measurements taken from patent US12624068B2, “Exon skipping by peptide nucleic acid derivatives” (OliPass Corporation, priority 2016, dated 2026).
# {Fethoc} = N-terminal Fethoc cap; [C(1O2)] = modified PNA monomer acting as cytosine, C(pOq) type, 1O2; [A(5)] = modified PNA monomer acting as adenine, A(p) type, p=5; [A(6)] = modified PNA monomer acting as adenine, A(p) type, p=6; [G(6)] = modified PNA monomer acting as guanine, G(p) type, p=6; {NH2} = C-terminal amide
# Experiments:
# [1] = system: mdx mice; assay: Histopathology by H&E staining of skeletal muscle in mdx mice; type: in vivo, mouse
# From the text: [Histopathology by H&E Staining] Muscular inflammation and degeneration are the hallmark of DMD symptoms. Skeletal muscle samples were subjected to histopathology evaluation by H&E staining. FIG. 43 provides a representative set of H&E staining images for the triceps by group and sampling time point.
# [2] = system: full-length dystrophin; assay: IHC of skeletal muscles against full-length dystrophin in mdx mice; type: in vivo
# From the text: [IHC Evaluation of Skeletal Muscles against Full-length Dystrophin] In Weeks 7, 13 and 21, two animals per group were randomly selected and sacrificed to extract muscle tissues. In Week 30, 3 animals were sacrificed per group.
# The muscle tissues sampled in Week 7 were subjected to IHC against the full-length dystrophin by cryosection. The muscle tissues sampled in Weeks 13, 21 and 30 were immunostained by paraffin block. IHC by paraffin block yielded images of better quality than IHC by cryosection.
# Muscle samples were subjected to immunostaining in series with a primary antibody targeting the C-terminal of mouse dystrophin (Cat. Number sc-816, Santa Cruz) at 1:100 dilution, with a secondary anti-IgG antibody (Cat Number BA-1100, Vector) at 1:200 dilution, and then with Dylight 594-streptavidin (Cat Number SA-5594, Vector, CA, USA) at 1:200 dilution for red fluorescence tagging. The IHC images were captured on a Zeiss slide scanner (in Weeks 13, 21 and 30) or an Olympus fluorescence microscope (in Week 7). […]
# The dystrophin IHC images were subjected to quantification for the full-length dystrophin expression by digitally scoring the intensity of red fluorescence in each individual IHC image using the “ImageJ” program (NIH). Individual fluorescence scores were combined by group and muscle type for statistical evaluation against the wild type negative control group.
# [3] = system: HIF-1α protein; assay: HIF-1α western blot in HeLa cells; type: cell-based, human; settings: 24 hours
# Protocol: “HIF-ASO 2” was evaluated for its ability to inhibit the expression of HIF-1α protein in HeLa cells as described below.
# [Cell Culture & ASO Treatment] HeLa cells grown in 60 mm culture dish containing 5 mL culture medium were treated with “HIF-ASO 2” at 0 zM (negative control), 10 zM, 100 zM, 1 aM, or 10 aM.
# [CoCl2 Treatment and Cell Lysis] 24 hours after the ASO treatment, the culture dishes except for the one without ASO treatment were treated with 200 μM CoCl2 for another 3 hours to upregulate the HIF-1α protein level by suppressing the activity of prolylhydroxylases (PHDs). Then the cells were washed 2× with 1 mL cold PBS, and subjected to lysis on ice with 200 μL 1×RIPA buffer (Cat. Number 9806, Cell Signaling Tech) supplemented with 1% SDS and 1× proteinase inhibitor cocktail (cOmplete Mini, Roche). Each lysate was collected in 1.5 mL e-tube, mixed with 100 μL 5× sample buffer, and boiled for 5 min at 100° C. The lysates were subjected to electrophoretic separation on an 8% SDS-PAGE gel, and transferred onto a 0.45 μm PVDF membrane. The membrane was probed with an anti-HIF-1α antibody (Cat. Number 610958, BD Biosciences) and an anti-β-actin antibody (Cat. Number sc4778, Santa Cruz).
# FIG. 19B is a western blot data obtained with HeLa cells treated with “HIF-ASO 6” at 0 (negative control), 10, 100 or 1,000 zM for 24 hours. FIG. 19C provides the individual HIF-1α band intensities normalized against each individual β-actin band intensity by densitometry. The expression of HIF-1α protein decreased by ca 45-55% in the cells treated with “HIF-ASO 6”.
# “HIF-ASO 1” was evaluated for its ability to inhibit the HIF-1α protein expression in HeLa cells according to the procedures described in “HIF-1α Example 2” unless noted otherwise. In this example, HeLa cells were treated with “HIF-ASO 1” at 0 zM (negative control), 100 zM, 300 zM, 1 aM, 3 aM, 10 aM, 30 aM, 100 aM or 300 aM for 72 hours prior to suppressing the activity of PHDs by an incubation with 200 μM CoCl2 for 3 hours. There were 4 culture dishes of the negative control, i.e., 0 zM “HIF-ASO 1”.
# [ASO Treatment] […]
# [4] = system: rats with diabetes-induced peripheral neuropathic pain (DPNP); assay: Reversal of allodynia (von Frey) in rats with diabetes-induced peripheral neuropathic pain; type: in vivo, rat; settings: 100 pmole/Kg subcutaneous in Days 11, 13, 15, 17 and 19
# Protocol: “SCN-ASO 7”, “SCN-ASO 8”, “SCN-ASO 21”, “SCN-ASO 35”, “SCN-ASO 36” and “SCN-ASO 37” were evaluated for their ability to reverse the allodynia in rats with diabetes-induced peripheral neuropathic pain (DPNP). In this example, the six SCN9A ASOs targeting a total of five splice sites were evaluated for their ability to reverse the allodynia induced by diabetic neuropathy in rats.
# [Induction of DPNP and Grouping] Diabetes was induced in rats by an intraperitoneal injection of streptozotocin at 60 mg/Kg in Day 0. In Day 10, rats with DPNP were randomly assigned to […] of negative control (vehicle only), “SCN-ASO 7” 100 pmole/Kg, “SCN-ASO 8” 100 pmole/Kg, “SCN-ASO 21” 100 pmole/Kg, “SCN-ASO 35” 100 pmole/Kg, “SCN-ASO 36” 100 pmole/Kg, and “SCN-ASO 37” 100 pmole/Kg. The animals were grouped based on the von Frey scores of individual animals in Day 10. (N=8-9 per group) Allodynia was scored using a set of microfilaments (Touch Test®) according to the “Up & Down” method. [J Neurosci. Methods vol 53(1), 55-63 (1994)]
# [ASO Treatment and von Frey Scoring] ASO solutions for injection were prepared by serially diluting aqueous mother stock solutions of the SCN9A ASOs to 100 nM in PBS (phosphate buffered saline). Animals were subcutaneously administered with ASO at 1 mL/Kg in Days 11, 13, 15, 17 and 19. Von Frey scoring was carried out 2 hours post dose in Days 11, 13, 15, 17 and 19. Von Frey scoring was additionally performed in Days 21 and 23 in order to assess the duration of the therapeutic activity after the final dosing. Daily von Frey scores were evaluated for statistical significance by student's t-test against the negative control group (vehicle only, i.e., PBS).
substance,measurement,setting,value
"Fethoc-A(5)GA-G(6)CC(1O2)-TCA-A(5)AA(5)-T-NH2 (antisense AGAGCCTCAAAAT; Fethoc N-cap, C-terminal amide, chemistry not fully specified) [DMD-ASO 1]",muscular degeneration and inflammation (H&E),[1]; chronic 200 pmole/Kg,reversed
same,severity of the histopathology findings (H&E),[1]; chronic 10 and 50 pmole/Kg,"weaker than the severity in the mdx negative control, but stronger than that in the 200 pmole/Kg group"
same,in vivo potency relative to the PMO ASO eteplirsen (30 mg/Kg per week),"[2]; 200 pmole/Kg corresponds to ca 1 μg/Kg, different species and exon","~30,000 times"
same,full-length dystrophin expression relative to the WT negative control group (IHC),"[2]; mdx mice, 200 pmole/Kg 2× per week, Week 30",> 80%
"Fethoc-A(6)GA-A(6)CT-TA(6)T-CC(1O2)T-A(6)CT-TA(6)-NH2 (AGAACTTATCCTACTTA; splice-switching; all peptide nucleic acid (PNA), [A(6)] at 1, 4, 8, 13, 17, [C(1O2)] at 11, 5' {Fethoc}, 3' {NH2}; peptide nucleic acid backbone) [HIF-ASO 6]","decrease of HIF-1α protein expression (western blot, normalized against β-actin)","[3]; HeLa cells, 10, 100 or 1,000 zM",45-55%
"Fethoc-AC(1O2)T-TA(5)C-G(6)CA-A(5)AA(5)-AC(1O2)A-A(5)-NH2 (ACTTACGCAAAAACAA; all peptide nucleic acid (PNA), [C(1O2)] at 2, 14, [A(5)] at 5, 10, 12, 16, [G(6)] at 7, 5' {Fethoc}, 3' {NH2}; peptide nucleic acid written N to C) [SCN-ASO 7]",maximum therapeutic efficacy based on the von Frey scores in Day 19,[4],~76%
"Fethoc-GA(5)A-C(1O2)TT-A(5)TC-CTA(5)-C(1O2)T-NH2 (GAACTTATCCTACT; splice-switching; all peptide nucleic acid (PNA), [A(5)] at 2, 7, 12, [C(1O2)] at 4, 13, 5' {Fethoc}, 3' {NH2}; peptide nucleic acid backbone) [HIF-ASO 2]","decrease of HIF-1α protein expression (western blot, normalized against β-actin)","[3]; HeLa cells, 10 aM, then 200 μM CoCl2 3 hours",~75%
